What all share (assay): NCI-60 cell line screen, 48 h
Assay [1] concerns DMS-114.
In assay [2] the test system is HOP-18.
Assay [3] deals with DLD-1.
Assay [4] relates to M19-MEL.
Assay [5] concerns KM-20L2.
Assay [6] has as its system LXFL 529.
Assay [7] concerns RXF 631.
The subject of assay [8] is XF498.

Structures are written as SMILES.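 Values below derive from 48-hour exposures of cells grown in 96-well plates, with endpoints linearly interpolated between the two concentrations bracketing the appropriate inhibition level. GI50 = concentration required for 50% inhibition of growth.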 Activity calls are given as the source filed them. Rule as the data show it: active = GI50 up to about 1.1 µM and inactive = higher.

Take `CCOC(=O)c1c2ccc(/C=C/c3ccccc3)ccc-2c(C(=O)OCC)c1N`: the GI50 was > 100 µM (inactive) in assay [1]; > 100 µM (inactive) in assay [2]; > 100 µM (inactive) in assay [3]; > 100 µM (inactive) in assay [4]; > 100 µM (inactive) in assay [5]; 78.7 µM (inactive) in assay [6]. Besides, the GI50 in assay [7] was > 100 µM (inactive).

For the molecule `Cc1cc(C)c(C(=O)O)c(SSc2cc(C)cc(C)c2C(=O)O)c1`, the GI50 in assay [1], in assay [3], in assay [8], in assay [4], in assay [5] and in assay [6] was > 100 µM (inactive) in each case. Moreover, the GI50 in assay [7] is > 100 µM (inactive).

`C=C1C(OC(=O)/C=C/c2ccccc2)CC(OC(C)=O)C2(C)C1CC1CC(OC(C)=O)C(C)=C(C(OC(C)=O)C2OC(C)=O)C1(C)C` (centres undefined): the GI50 in assay [1] is 5.97 µM (inactive); in assay [2] it was > 100 µM (inactive); in assay [4], > 100 µM (inactive); in assay [5] it was > 100 µM (inactive); in assay [6], 8.36 µM (inactive); in assay [7], > 100 µM (inactive).

Regarding `CSc1nc(SC)c2c(C#N)n[nH]c2n1`, the GI50 in assay [1], in assay [3], in assay [8], in assay [4], in assay [5] and in assay [7] was > 100 µM (inactive) throughout.

For `CC1(OCc2ccccc2)C(=O)N2C1NCC2(C)C` (centres undefined), the GI50 in assay [1], in assay [3], in assay [8], in assay [4], in assay [5] and in assay [6] was > 100 µM (inactive) in each case. For the same molecule, the GI50 in assay [7] was > 100 µM (inactive).

Turning to `Cc1cc(N(CCC#N)CCC#N)ccc1/C=C\C(=O)Nc1ccccc1`, the GI50 is 49.7 µM (inactive) in assay [1]; 8.17 µM (inactive) in assay [3]; > 100 µM (inactive) in assay [8]; 36.7 µM (inactive) in assay [4]; 1.07 µM (active) in assay [5]; 0.859 µM (active) in assay [6]. For the same molecule, the GI50 in assay [7] is > 100 µM (inactive).

As for `Cc1c(-c2cc(-c3ccccc3)n[nH]c2=O)c2ccccc2n1C`, the GI50 is > 100 µM (inactive) in assay [1]; 71.3 µM (inactive) in assay [2]; > 100 µM (inactive) in assay [3]; > 100 µM (inactive) in assay [8]; > 100 µM (inactive) in assay [4]; > 100 µM (inactive) in assay [5]. Moreover, in assay [6], the GI50 is > 100 µM (inactive).

Consider `Cc1cc(C)nc(NS(=O)(=O)c2ccc(NC(=O)c3ccc(Cl)c4c(Nc5ccc(S(=O)(=O)Nc6cc(C)on6)cc5)c5ccccc5nc34)cc2)n1`, for which the GI50 in assay [1] is 17.9 µM (inactive); in assay [2], 15.7 µM (inactive); in assay [3] it was 16 µM (inactive); in assay [4], 21 µM (inactive); in assay [5], 18.5 µM (inactive); in assay [6] it was 16.8 µM (inactive). Also, the GI50 in assay [7] is 17.7 µM (inactive).

For the molecule `NCCCNCCCCN(CCCN)/[N+]([O-])=N\O`, the GI50 in assay [1], in assay [2], in assay [3], in assay [4], in assay [5] and in assay [6] was > 100 µM (inactive) in each case. For the same molecule, the GI50 in assay [7] is > 100 µM (inactive).

On to `CN(C)CCS/C(=N\c1ccccc1)n1cccc1`, for which the GI50 in assay [1] is 26.3 µM (inactive); in assay [2], > 100 µM (inactive); in assay [3], > 100 µM (inactive); in assay [8] it was > 100 µM (inactive); in assay [4], 83.9 µM (inactive); in assay [5], 32.1 µM (inactive). In assay [6], the GI50 is 42.7 µM (inactive).

As for `O=c1[nH]c(=O)n(C2CC(O)C(CO)O2)cc1OS(=O)(=O)C(F)(F)F` (centres undefined), the GI50 in assay [1] is > 100 µM (inactive); in assay [2], > 100 µM (inactive); in assay [3] it was > 100 µM (inactive); in assay [8] it was < 0.01 µM (active); in assay [4], > 100 µM (inactive); in assay [5], > 100 µM (inactive). The GI50 in assay [6] and in assay [7] was > 100 µM (inactive) in each case.

In the case of `C[N+](C)(C)CC1CCC/C1=N/O` (centres undefined), the GI50 in assay [1] was 20 µM (inactive); in assay [2] it was > 100 µM (inactive); in assay [3], > 100 µM (inactive); in assay [8], 1.68 µM (inactive); in assay [4], 41 µM (inactive); in assay [5], 17.8 µM (inactive). The GI50 in assay [6] was 54.5 µM (inactive).

With `C/C(CN1C(=O)c2ccccc2C1=O)=N\NS(=O)(=O)c1cccc(C(=O)O)c1`, the GI50 in assay [1], in assay [2], in assay [3], in assay [8], in assay [4] and in assay [5] was > 100 µM (inactive) throughout. The GI50 in assay [6] and in assay [7] was > 100 µM (inactive) throughout.

For `NCCc1ccc2oc3cc(=O)c4ccccc4c-3nc2c1`, the GI50 in assay [1] was 1.08 µM (active); in assay [2], 1 µM (active); in assay [3], 2.04 µM (inactive); in assay [8] it was 3.41 µM (inactive); in assay [4], 0.3 µM (active); in assay [5], 2.75 µM (inactive). Further, the GI50 in assay [6] is 2.58 µM (inactive); in assay [7], 2.96 µM (inactive).

These data come from ChEMBL document CHEMBL1201862, “PubChem BioAssay data set” (2004).
